Laboratory results published in patent publication US6552167B1, “Polyamide chains of precise length” (Gryphon Therapeutics, Inc., priority 1998, dated 2003).
Positions of bridges follow the written chain, without caps; N, C: chain ends. 'PEG'‑succ = not defined here

Assays:
[1] = test system: BCL, turnor cell line; details: disulfide bond between the cysteines; Terskikh, et al.; cited from earlier work
[2] = Solubility in solvents; format: physicochemical
[3] = test system: trypsin; assay: Polyamide stability to protease digestion, HPLC analysis (trypsin); details: 24 hours; 1 mg/ml in 1% ammonium bicarbonate, enzyme:substrate 1:100, 37° C.
Procedure: (§1) The compounds produced in Examples 8 and 9 were separately dissolved at 1 mg/ml in a 1% ammonium bicarbonate solution. In separate tubes, these solutions were treated with trypsin, chymotrypsin and elastase (enzyme:substrate ratio 1:100, 37° C.). Aliquots (20 μl) were withdrawn at intervals and analyzed by HPLC.

[4] = test system: chymotrypsin; assay: Polyamide stability to protease digestion, HPLC analysis (chymotrypsin); details: 24 hours; 1 mg/ml in 1% ammonium bicarbonate, enzyme:substrate 1:100, 37° C.
Procedure: as §1

[5] = test system: elastase; assay: Polyamide stability to protease digestion, HPLC analysis (elastase); details: 24 hours; 1 mg/ml in 1% ammonium bicarbonate, enzyme:substrate 1:100, 37° C.
Procedure: as §1

[6] = test system: human leukemic UT-7 EPO dependent cell line; assay: EPO activity in a cell culture assay (UT-7 EPO dependent cell line); format: cell-based; details: for ED50 (effective dose giving 50% of maximum response): UT-7 EPO dependent cell line
Procedure: Precise Length EMP-dimers with linkers of different lengths were assayed for EPO activity in a cell culture assay (human leukemic UT-7 EPO dependent cell line). Recombinant EPO and the EMP monomer peptides were included as controls, where the monomer is designated as “mono” in Table 1.
The short linker in the precise length EMP-dimer (designated “s” in Table 1) was -(‘PEG’-succ)2-‘PEG’-(succ-‘PEG’)2-. The medium linker (designated “m” in Table 1) was -(‘PEG’-succ)6-‘PEG’-(succ-‘PEG’)6- and the long linker (designated “1” in Table 1) was -(‘PEG’-succ)8-‘PEG’-(succ-‘PEG’)8-.
Table 1 presents the mean OD's for each peptide sample.
Table 2 presents the mean OD's for recombinant EPO sample.
It was clear, from the results presented above, that the ED50 (effective dose giving 50% of maximum response) values were as presented in Table 3.

In the case of “ADGACRNPWC (H-ADGACRNPWC-{'PEG'‑succ-'PEG'‑succ-'PEG'‑succ-'PEG'‑succ-'PEG'‑succ-'PEG'‑succ-'PEG'‑succ-'PEG'‑succ-Lys(AoA)-NH2}; disulfide 5-10 (inferred); reading uncertain; also: four copies oximated to fluorescein-labelled Lys2Lys template (tetrameric chemobody)) [phage-derived peptide]”, the “binding to the BCL tumor cell line” value [1] is given as “bound”.

For Fmoc-Ser(But)-(‘PEG’-succ)8-Abu-OH, the “solubility in the water/acetonitrile/TFA HPLC solvent system” value [2] was “perfectly soluble”.

For “H-PQPQPKPQPQPQPQPKPQPKPEPE-NH2 [SEQ ID NO:5]”, the digestion by trypsin [3] was “digested extensively”, the digestion by chymotrypsin [4] was “stable” and the digestion by elastase [5] was “stable”.

For “Recombinant EPO: recombinant erythropoietin, control”, the “mean OD” value ([6]; EPO 1.85 ng/ml) was “.878”, the “mean OD” value ([6]; EPO 5.56 ng/ml) was “.885” and the “mean OD” value ([6]; EPO 16.7 ng/ml) was “.920”. The “mean OD” value ([6]; EPO 50 ng/ml) was “.917”, the “mean OD” value ([6]; EPO .00254 ng/ml) was “.101” and the “mean OD” value ([6]; EPO .00762 ng/ml) was “.108”. For the same substance, the “mean OD” value ([6]; EPO .0229 ng/ml) was “.124”, the “mean OD” value ([6]; EPO .0686 ng/ml) was “.179” and the “mean OD” value ([6]; EPO .206 ng/ml) was “.362”. The “mean OD” value ([6]; EPO .617 ng/ml) was “.650” and the “ED50 (effective dose giving 50% of maximum response)” value [6] was 25 pM.

For “amide-GRLPQCVWTMPGMHCAYLGG-COCH2ON═CH—CO-(‘PEG’-succ)12-‘PEG’-CH═NOCH2CO-GGLYACHMGPMTWVCQPLRG-amide [EMP-m (medium dimer)]”, the “ED50 (effective dose giving 50% of maximum response)” value [6] was 1 pM, the “mean OD” value ([6]; concentration 1 × 10^−1 μM) was “.884” and the “mean OD” value ([6]; concentration 1.11 × 10^−2 μM) was “.876”. For the same substance, the “mean OD” value ([6]; concentration 1.24 × 10^−3 μM) was “.916”, the “mean OD” value ([6]; concentration 1.37 × 10^−4 μM) was “.760” and the “mean OD” value ([6]; concentration 1.52 × 10^−5 μM) was “.597”. For the same substance, the “mean OD” value ([6]; concentration 1.69 × 10^−6 μM) was “.641”, the “mean OD” value ([6]; concentration 1.88 × 10^−7 μM) was “.363” and the “mean OD” value ([6]; concentration 2.09 × 10^−8 μM) was “.287”. For the same substance, the “mean OD” value ([6]; concentration 2.32 × 10^−9 μM) was “.246”, the “mean OD” value ([6]; concentration 3.33 × 10^−2 μM) was “.902” and the “mean OD” value ([6]; concentration 3.70 × 10^−3 μM) was “.888”. The “mean OD” value ([6]; concentration 4.12 × 10^−4 μM) was “.805”, the “mean OD” value ([6]; concentration 4.57 × 10^−5 μM) was “.637” and the “mean OD” value ([6]; concentration 5.08 × 10^−6 μM) was “.712”. The “mean OD” value ([6]; concentration 5.65 × 10^−7 μM) was “.469”, the “mean OD” value ([6]; concentration 6.27 × 10^−8 μM) was “.350” and the “mean OD” value ([6]; concentration 6.97 × 10^−9 μM) was “.280”.

For “erythropoietin mimetic peptide monomer, GGLYACHMGPMTWVCQPLRG (SEQ ID NO:1), control [EMP monomer, reference compound]”, the “ED50 (effective dose giving 50% of maximum response)” value [6] was 20,000 pM, the “mean OD” value ([6]; concentration 1 × 10^−1 μM) was “.878” and the “mean OD” value ([6]; concentration 1.11 × 10^−2 μM) was “.373”. For the same substance, the “mean OD” value ([6]; concentration 1.24 × 10^−3 μM) was “.078”, the “mean OD” value ([6]; concentration 1.37 × 10^−4 μM) was “.089” and the “mean OD” value ([6]; concentration 3.33 × 10^−2 μM) was “.673”. The “mean OD” value ([6]; concentration 3.70 × 10^−3 μM) was “.210” and the “mean OD” value ([6]; concentration 4.12 × 10^−4 μM) was “.078”.
